Usually EC50 stands for the concentration that produces a half-maximal response. High values mean lower potency in that assay, low ones higher potency in that assay.

The values that follow come from ChEMBL document CHEMBL1124170, “N2-phenyldeoxyguanosine: a novel selective inhibitor of herpes simplex thymidine kinase” (J Med Chem, 1988).

The first assay deals with Thymidine kinase (Human alphaherpesvirus 1). As to the kind of experiment: Inhibitory activity against Herpes simplex virus type-I specific thymidine kinase; No inhibition detected at 1 mM concentration.
`CCCCc1ccc(Nc2nc(N)c3ncn([C@H]4C[C@H](O)[C@@H](CO)O4)c3n2)cc1`: the EC50 entry is on record as “Not Active”.

For the next assay, the target named is T1, Thymidine kinase (Human herpesvirus 1 (strain SC16) (HHV-1) (Human herpes simplex virus1), UniProt P06479).
T1 sequence (P06479 whole entry): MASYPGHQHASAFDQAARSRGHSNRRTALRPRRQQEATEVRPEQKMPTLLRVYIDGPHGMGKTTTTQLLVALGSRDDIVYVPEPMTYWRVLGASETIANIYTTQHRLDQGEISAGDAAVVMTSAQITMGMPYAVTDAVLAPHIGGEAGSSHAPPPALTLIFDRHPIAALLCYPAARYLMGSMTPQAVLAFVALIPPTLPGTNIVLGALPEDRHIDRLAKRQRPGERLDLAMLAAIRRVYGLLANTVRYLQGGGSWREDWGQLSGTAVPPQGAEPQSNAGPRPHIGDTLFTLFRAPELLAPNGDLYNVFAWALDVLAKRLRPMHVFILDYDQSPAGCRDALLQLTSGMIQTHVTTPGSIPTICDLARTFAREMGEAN
As to the kind of experiment: Inhibitory activity against Herpes simplex virus type-I specific thymidine kinase. Details: species or system Human alphaherpesvirus 1 strain SC16; call rule not given here.
The compound `O=C1N=C(Nc2ccccc2)N=C2C1N=CN2[C@H]1C[C@H](O)[C@@H](COP(=O)(O)O)O1` (stereo not given in full) returned an EC50 of 3 µM. Same read-out and setting: under `CCCCc1ccc(Nc2nc3c(ncn3[C@H]3C[C@H](O)[C@@H](CO)O3)c(=O)[nH]2)cc1` stands 25 µM. Still for that read-out and setting: the figure for `CCCCc1ccc(Nc2nc3c(ncn3[C@H]3O[C@@H](CO)[C@H](O)[C@@H]3O)c(=O)[nH]2)cc1` is 75 µM. Still for that read-out and setting: the figure for `CCCCc1ccc(Nc2nc3nc[nH]c3c(=O)[nH]2)cc1` is 50 µM; for `Cc1ccc(Nc2nc3nc[nH]c3c(=O)[nH]2)cc1` it is 50 µM. Regarding `CCCCc1ccc(Nc2nc3c(ncn3COCCO)c(=O)[nH]2)cc1`, the EC50 was 140 µM.

`CCCCc1ccc(NC2=NC(=O)C3N=CN([C@H]4C[C@H](O)[C@@H](COP(=O)(O)O)O4)C3=N2)cc1` (stereo not given in full) yielded an EC50 of 400 µM. Still for that read-out and setting: the figure for `CCc1cccc(Nc2nc3nc[nH]c3c(=O)[nH]2)c1` is 3 µM; for `Cc1ccc(Nc2nc3c(ncn3C3O[C@@H](CO)[C@H](O)[C@@H]3O)c(=O)[nH]2)cc1` (stereo not given in full) it is 30 µM.
